Experimental data from US8742082B2, “Compositions and methods for influencing satiety, lipid metabolism, and fat utilization” (Nestec S.A., priority 2008, dated 2014).

What was measured:
Visfatin = test: Real-time PCR gene expression in peripheral tissues: visfatin; type: in vivo; settings: C57bl6j mice, high fat diet, 100 mg/kg/body weight in diet, 5 weeks
Procedure: (§1) The expression of 45 genes was measured by real-time PCR in peripheral tissues to identify genes that were differentially expressed in response to oral administration of oleoylethanolamide (OEA) or a non-hydrolysable OEA analog (KDS 5104), which affect satiety, lipid metabolism, fat utilization, food intake, and body fat mass.
(§2) Animals, diet, and experimental design. Adult male C57bl6j mice purchased at 8 weeks of age were individually housed and maintained ad libitum on high fat diet and water for 2 weeks. Seven mice were randomly allocated in 3 groups and fed with a high fat diet (lipids represented 50% of daily energy) for 2 weeks. For one kilogram, the composition of the high fat diet was: 235 g casein, 201 g saccharose, 3.5 g L-cystine, 85 g starch, 116 g maltodextrin, 60 g cellulose, 12 g vitamins mix (AIN-93M, UPAE, Jouy-en-Josas, France), 51.5 g mineral mix (AIN-93Vx, UPAE, Jouy-en-Josas, France), and 236 g lard. Then, either OEA or KDS 5104 was added to the diet at a concentration of 100 mg/kg/body weight. The mice were kept under treatment for 5 weeks.
(§3) Sampling. At the end of the experimental period, mice were sacrificed by blood drawing (cardiac puncture) after anesthesia with isoflurane. Plasma was obtained by centrifugation (1,000 g for 10 min at 4° C.). Mesenteric, epididymal, inguinal and peritoneal adipose depots, as well as liver, stomach, small intestine mucosa, pancreas, and gastrocnemian muscle were removed and frozen into liquid nitrogen. Plasma, urine, feces, and organ samples were kept at −80° C. until analysis.
(§4) RNA extraction and gene expression. Total RNA from liver, intestine mucous membrane, adipose tissues, gastrocnemian muscle, pancreas and stomach were extracted with TRIzol reagent (Invitrogen, Carlsbad, USA) according to the manufacturer's instruction. The RNA concentration was determined on nanodrop from the absorbance at 260 nm. […] Real-time quantitative PCR (RT-qPCR) were performed on cDNA obtained as described above using a high through put system (Biomek 3000, Beckman & Coulter, Fullerton, USA) and a Lightcycler 480 (Roche/Hitachi, Basel, Switzerland) with SYBR Green Master mix+kit (Eurogentec, Philadelphia, USA). […] Values were expressed as ratio of RNA levels relative to control mice (diets with 0 mg of OEA/kg/body weight) using ΔΔ(Ct) (Livak K J & Schmittgen T D, 2001, Methods 25:402-8). Gene expression of the following genes was measured (abbreviation and GenBank Accession shown in parentheses).
Statistical analysis. […] Daily food intake was analyzed using two-way ANOVA on Statview software. […] For statistical analysis of the gene expression data, values were calculated relative to 18S expression for each mouse and gene.

[1] = Chronic oral OEA in high fat diet: food intake; type: in vivo; settings: C3H mice, 4 weeks
From the text: The physiological and biochemical effects of chronic oral OEA administration were investigated. Mice were chronically fed with OEA, provided as a supplement during 4 weeks, to study the effect on body weight gain and cumulative food intake, among other parameters.
Animals, diet and experimental design. Adult male C3H mice purchased at 8 weeks of age were individually housed and maintained ad libitum on different diets and water for 2 weeks. Seven mice were allocated in 3 groups by randomization by weight, and fed with a high fat diet (lipids represented 50% of daily energy) during 2 weeks. The composition of the high fat diet per kg was: 284.5 g of corn starch, 89.5 g of saccharose, 250 g of casein, 50 g of cellulose, 10 g of a mix of vitamins (V1001), 35 g of a mix of minerals (S10026) and 281 g of canola oil (UPAE, Jouy en Josas, France). Then, OEA was added to the diets at different levels to provide 0, 10, or 100 mg OEA/kg body weight. The mice were kept on each respective diet for 4 weeks. During the nutritional intervention, daily food intake was monitored and the mice were weighed 3 times a week.
Statistical analysis. Results were determined as mean±standard error of the mean (SEM). Statistical analysis of physiological parameters was performed by one-way ANOVA on Statview software (SAS institute, Cary, USA). Statistical significance was set up at the P<0.05 level.

[2] = tested on: Sterol regulatory element binding protein-C 2 (SREBP2 1); test: Real-time PCR gene expression in peripheral tissues: SREBP2; type: in vivo; settings: liver; C57bl6j mice, high fat diet, 100 mg/kg/body weight in diet, 5 weeks
Procedure: as §1
(§5) Animals, diet, and experimental design. Adult male C57bl6j mice purchased at 8 weeks of age were individually housed and maintained ad libitum on high fat diet and water for 2 weeks. Seven mice were randomly allocated in 3 groups and fed with a high fat diet (lipids represented 50% of daily energy) for 2 weeks. […]
as §4, with “Total RNA from liver, intestine mucous membrane, adipose tissues, gastrocnemian muscle, pancreas and stomach were extracted with TRIzol reagent (Invitrogen, Carlsbad, USA) according to the manufacturer's instruction.” left out, “parentheses). […]” for “parentheses).”

[3] = tested on: overall gene expression pattern; test: Multivariate statistical analysis of overall gene expression pattern; type: in vivo; settings: C57bl6j mice, high fat diet, 100 mg/kg/body weight in diet, 5 weeks
Procedure: as §1, §5
as §4, with “Total RNA from liver, intestine mucous membrane, adipose tissues, gastrocnemian muscle, pancreas and stomach were extracted with TRIzol reagent (Invitrogen, Carlsbad, USA) according to the manufacturer's instruction.” left out, “parentheses). […]” for “parentheses).”

[4] = tested on: Peroxisome proliferator activated receptor alpha (PPAR α); test: Real-time PCR gene expression in peripheral tissues: PPAR α; type: in vivo; settings: proximal intestine; C57bl6j mice, high fat diet, 100 mg/kg/body weight in diet, 5 weeks
Procedure: as §1, §5
as §4, with “Total RNA from liver, intestine mucous membrane, adipose tissues, gastrocnemian muscle, pancreas and stomach were extracted with TRIzol reagent (Invitrogen, Carlsbad, USA) according to the manufacturer's instruction.” left out, “parentheses). […]” for “parentheses).”

[5] = tested on: Sterol regulatory element binding protein-c 1 (SREBP 1c); test: Real-time PCR gene expression in peripheral tissues: SREBP1c; type: in vivo; settings: C57bl6j mice, high fat diet, 100 mg/kg/body weight in diet, 5 weeks
Procedure: as §1, §2, §3
(§6) RNA extraction and gene expression. Total RNA from liver, intestine mucous membrane, adipose tissues, gastrocnemian muscle, pancreas and stomach were extracted with TRIzol reagent (Invitrogen, Carlsbad, USA) according to the manufacturer's instruction. The RNA concentration was determined on nanodrop from the absorbance at 260 nm. Retro-transcription PCRs to synthesize cDNA were performed using an Applied Biosystem Thermal Cycler 2720 and Superscript II (Invitrogen, Carlsbad, USA) according to manufacturer's protocol. Real-time quantitative PCR (RT-qPCR) were performed on cDNA obtained as described above using a high through put system (Biomek 3000, Beckman & Coulter, Fullerton, USA) and a Lightcycler 480 (Roche/Hitachi, Basel, Switzerland) with SYBR Green Master mix+kit (Eurogentec, Philadelphia, USA). Primers for the selected genes were generated using online informatics assistance from the Lightcycler manufacturer (Roche). Databases used to identify the genes were (1) the NCBI database (GenBank) and (2) the IHOP (Information Hyperlinked over Protein) database (www.ihop-net.org/UniPub/iHOP/bng/). Values were expressed as ratio of RNA levels relative to control mice (diets with 0 mg of OEA/kg/body weight) using ΔΔ(Ct) (Livak K J & Schmittgen T D, 2001, Methods 25:402-8). Gene expression of the following genes was measured (abbreviation and GenBank Accession shown in parentheses).
(§7) Statistical analysis. […] Statistical analysis of physiological parameters and gene expression data was performed by one-way ANOVA on Statview software (SAS Institute, Cary, USA). Daily food intake was analyzed using two-way ANOVA on Statview software. Statistical significance was set up at the P<0.05 level, the P<0.01 level and the P<0.001 level. For statistical analysis of the gene expression data, values were calculated relative to 18S expression for each mouse and gene.

[6] = tested on: Fatty acid amide hydrolase (FAAH); test: Real-time PCR gene expression in peripheral tissues: FAAH; type: in vivo; settings: C57bl6j mice, high fat diet, 100 mg/kg/body weight in diet, 5 weeks
Procedure: as §1, §2, §3, §6, §7

PPAR α = biological target: T1, PPAR α (Mus musculus, UniProt P23204); settings: wild-type and PPAR α (−/−) mice; cited from earlier work
T1 construct: host or cells: wild-type mice (endogenous protein)

[7] = tested on: Stearoyl-Coenzyme A desaturase 1 (SCD 1); test: Real-time PCR gene expression in peripheral tissues: SCD1; type: in vivo; settings: C57bl6j mice, high fat diet, 100 mg/kg/body weight in diet, 5 weeks
Procedure: as §1, §2, §3, §6, §7

T1 sequence (P23204 whole entry): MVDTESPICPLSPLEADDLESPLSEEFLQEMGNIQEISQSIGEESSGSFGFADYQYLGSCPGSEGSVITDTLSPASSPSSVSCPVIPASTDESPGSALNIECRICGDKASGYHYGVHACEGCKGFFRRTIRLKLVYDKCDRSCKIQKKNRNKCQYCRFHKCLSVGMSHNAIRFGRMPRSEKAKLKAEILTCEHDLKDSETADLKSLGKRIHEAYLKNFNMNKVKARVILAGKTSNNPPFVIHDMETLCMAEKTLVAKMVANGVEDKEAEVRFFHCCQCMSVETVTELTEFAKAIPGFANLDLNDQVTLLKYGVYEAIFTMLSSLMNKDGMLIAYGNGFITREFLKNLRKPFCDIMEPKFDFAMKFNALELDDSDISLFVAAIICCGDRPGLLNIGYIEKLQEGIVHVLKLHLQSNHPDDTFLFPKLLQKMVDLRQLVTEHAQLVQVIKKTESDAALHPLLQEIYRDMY

CCCCCCCC/C=C\CCCCCCCC(=O)NCCO [OEA, N-oleoyl-ethanolamide]
visfatin at ep, ratio of RNA levels relative to control mice (Visfatin; epidydimal adipose tissue): −1.55 | visfatin at per, ratio of RNA levels relative to control mice (Visfatin; peritoneal adipose tissue): −1.80 | Dose dependence of the effect on food intake ([1]; 10 vs 100 mg/kg body weight): not dose dependent | Food intake, change in mice consuming OEA ([1]; high fat diet, OEA 10 or 100 mg/kg body weight in diet, P<0.05): −6.5% | SREBP2 l, ratio of RNA levels relative to control mice [2]: 1.22 | overall gene expression pattern (multivariate statistical analysis) [3]: significant shift | PPAR α i, ratio of RNA levels relative to control mice [4]: 1.20 | SREBP1c at ep, ratio of RNA levels relative to control mice ([5]; epidydimal adipose tissue): 1.08 | SREBP1c l, ratio of RNA levels relative to control mice ([5]; liver): 1.24 | SREBP1c at per, ratio of RNA levels relative to control mice ([5]; peritoneal adipose tissue): −1.39 | FAAH at ep, ratio of RNA levels relative to control mice ([6]; epidydimal adipose tissue): 2.22 | FAAH at per, ratio of RNA levels relative to control mice ([6]; peritoneal adipose tissue): 1.62 | FAAH i, ratio of RNA levels relative to control mice ([6]; proximal intestine): 1.68 | food intake, wild-type vs PPAR α (−/−) mice (PPAR α): regulates food intake in wild-type mice but not in PPAR α (−/−) mice | SCD 1 at ep, ratio of RNA levels relative to control mice ([7]; epidydimal adipose tissue): 1.00 | SCD1 l, ratio of RNA levels relative to control mice ([7]; liver): −2.13 | SCD 1 at per, ratio of RNA levels relative to control mice ([7]; peritoneal adipose tissue): −1.30
